{"source": "patent US20240366623A1", "about": "“COMPOSITIONS FOR PREVENTING OR TREATING CHARCOT-MARIE-TOOTH DISEASE (CMT)” (Chong Kun Dang Pharmaceutical Corp., priority 2021, published 2024)", "test_system": "C3 CMT1A mice", "test": "Histopathologic evaluation of sural nerves in C3 CMT1A mice", "type": "in vivo, mouse", "method": "Ten-week-old C3 CMT1A mice were provided with a standard diet (Central Lab Animal, Inc.) and water ad libitum and were housed in a controlled environment with a temperature of 22±2° C., a humidity of 44-56% and a 12-hour light-dark cycle. All experimental procedures were approved and performed according to the Institutional Animal Care and Use Committee (IACUC) of the Korea CKD Laboratory Animal Center (with an approved number: S-17_033).\nVehicle is 0.5% […] (MC), and each group was administered vehicle or compound 43 for eight weeks. TG or C3 refers to C3 CMT1A mice; a wild type (WT) is a group in which only vehicle is administered to normal mice; Vehicle(C3) or C3 group is a group in which only vehicle is administered to C3 CMT1A mice; and compound 43 is a group in which compound 43 is administered to C3 CMT1A mice with five animals in each group.\nAt eight weeks after administering vehicle or drug (compound 43), the sural nerves were collected at 0.5 hours after the final drug administration and then fixed overnight in 2.5% glutaraldehyde solution. The fixed samples were subjected to general tissue processing for image analysis, sectioned with a thickness of […], and stained with toluidine blue. Histological evaluation was performed on imaging files taken with an optical microscopy. In each sample, morphological changes of myelin, such as demyelination, remyelination, etc., and pathological changes, including a reduction in axon diameter, were evaluated. The axon and myelin diameters were analyzed with Image J software and a G-ratio thereof was calculated as the ratio of an internal axon diameter to a total external diameter, and the results are shown in FIGS. 21 to 23.\nData were represented as mean±SEM. Statistical significance between groups was tested using one-way ANOVA and post hoc analysis was performed by Dunnett's test. All statistical analyses were performed with GraphPad Prism 9.0.", "key": {"[1]": {"details": "10 mg/Kg PO BID eight weeks (FIG. 21)"}}}
{"smiles": "O=C(N1CCS(=O)(=O)CC1)N(Cc1ccc(-c2nnc(C(F)F)o2)cn1)c1ccccc1", "note": "[Compound 43, N-((5-(5-(difluoromethyl)-1,3,4-oxadiazol-2-yl)pyridin-2-yl)methyl)-N-phenylthiomorpholine-4-carboxamide 1,1-dioxide]", "values": [{"measurement": "axon diameter (sural nerve)", "setting": "[1]", "result": "increased"}, {"measurement": "myelin sheath thickness (sural nerve)", "setting": "[1]", "result": "increased"}, {"measurement": "slope of g-ratio (sural nerve)", "setting": "10 mg/Kg PO BID eight weeks (FIG. 22)", "result": "lower slope than that of vehicle-treated animals"}, {"measurement": "proportion of axons with a large diameter (sural nerve)", "setting": "10 mg/Kg PO BID eight weeks (FIG. 23)", "result": "tendency to increase"}]}
